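Five compound concentrations were applied to cells in 96-well plates for 48 hours; endpoints were derived by simple linear interpolation of the resulting dose-response curve. GI50 = concentration required for 50% inhibition of growth. TGI: concentration producing complete growth inhibition.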
Columns and labels:
Assay in all cases: NCI-60 cell line screen, 48 h
[1] = system: 786-0 renal
[2] = system: A498 renal
[3] = system: A549 NSCLC
[4] = system: ACHN renal
[5] = system: BT-549 breast
[6] = system: CAKI-1 renal
[7] = system: CCRF-CEM leukemia
[8] = system: COLO 205 colon
[9] = system: EKVX NSCLC
[10] = system: HCC-2998 colon
[11] = system: HCT-116 colon
[12] = system: HCT-15 colon
[13] = system: HL-60(TB) leukemia
[14] = system: HOP-62 NSCLC
[15] = system: HOP-92 NSCLC
[16] = system: HS 578T breast
[17] = system: HT29 colon
[18] = system: IGROV1 ovarian
[19] = system: K-562 leukemia
[20] = system: KM12 colon
[21] = system: LOX IMVI melanoma
[22] = system: M14 melanoma
[23] = system: MALME-3M melanoma
[24] = system: MCF7 breast
[25] = system: MDA-MB-231 breast
[26] = system: MDA-MB-435
[27] = system: MOLT-4 leukemia
[28] = system: NCI-H226 lung
[29] = system: NCI-H23 lung

Q: How did the GI50 [1] turn out when `COc1cc(/C=C2\C(=O)N(c3ccccc3)c3ccccc32)cc(OC)c1OC` was run?
A: 6.67 µM

Q: What about the TGI [1] of the same molecule?
A: 21.2 µM

Q: What about the GI50 [2] of the same molecule?
A: 18.1 µM

Q: What about the TGI [2] of the same molecule?
A: 38.9 µM

Q: What about the GI50 [3] of the same molecule?
A: 11.3 µM

Q: What about the TGI [3] of the same molecule?
A: 40.9 µM

Q: And the GI50 [4]?
A: 6.32 µM

Q: What about the TGI [4] of the same molecule?
A: 20.7 µM

Q: What about the GI50 [5] of the same molecule?
A: 15.5 µM

Q: And the TGI [5]?
A: 47.4 µM

Q: And the GI50 [6]?
A: 12.5 µM

Q: What about the TGI [6] of the same molecule?
A: 61.3 µM

Q: What about the GI50 [7] of the same molecule?
A: 1.75 µM

Q: What about the TGI [7] of the same molecule?
A: 7.78 µM

Q: What about the GI50 [8] of the same molecule?
A: 14.4 µM

Q: And the TGI [8]?
A: 71.3 µM

Q: And the GI50 [9]?
A: 23.5 µM

Q: What about the TGI [9] of the same molecule?
A: 65.6 µM

Q: And the GI50 [10]?
A: 10.6 µM

Q: And the TGI [10]?
A: 23.9 µM

Q: What about the GI50 [11] of the same molecule?
A: 3.47 µM

Q: And the TGI [11]?
A: 12.4 µM

Q: And the GI50 [12]?
A: 4.37 µM

Q: What about the TGI [12] of the same molecule?
A: 17.1 µM

Q: What about the GI50 [13] of the same molecule?
A: 2.68 µM

Q: What about the TGI [13] of the same molecule?
A: 15 µM

Q: What about the GI50 [14] of the same molecule?
A: 15 µM

Q: And the TGI [14]?
A: 31.5 µM

Q: And the GI50 [15]?
A: 3.71 µM

Q: And the TGI [15]?
A: 20.7 µM

Q: And the GI50 [16]?
A: 28.2 µM

Q: And the TGI [16]?
A: > 100 µM

Q: And the GI50 [17]?
A: 3.7 µM

Q: And the TGI [17]?
A: 13.9 µM

Q: What about the GI50 [18] of the same molecule?
A: 6.61 µM

Q: And the TGI [18]?
A: 32 µM

Q: What about the GI50 [19] of the same molecule?
A: 3.04 µM

Q: And the TGI [19]?
A: > 100 µM

Q: What about the GI50 [20] of the same molecule?
A: 3.84 µM

Q: What about the TGI [20] of the same molecule?
A: 20.1 µM

Q: What about the GI50 [21] of the same molecule?
A: 2.24 µM

Q: And the TGI [21]?
A: 4.61 µM

Q: And the GI50 [22]?
A: 11.3 µM

Q: What about the TGI [22] of the same molecule?
A: 26.9 µM

Q: And the GI50 [23]?
A: 18.5 µM

Q: What about the TGI [23] of the same molecule?
A: 46.4 µM

Q: What about the GI50 [24] of the same molecule?
A: 8.05 µM

Q: What about the TGI [24] of the same molecule?
A: > 100 µM

Q: What about the GI50 [25] of the same molecule?
A: 4.12 µM

Q: And the TGI [25]?
A: 26.1 µM

Q: What about the GI50 [26] of the same molecule?
A: 5.85 µM

Q: What about the TGI [26] of the same molecule?
A: 36.6 µM

Q: And the GI50 [27]?
A: 2.33 µM

Q: What about the TGI [27] of the same molecule?
A: 10.8 µM

Q: And the GI50 [28]?
A: 9.69 µM

Q: And the TGI [28]?
A: 29.3 µM

Q: And the GI50 [29]?
A: 9.79 µM

Source: PubChem BioAssay (NCI)
